{
  "source": "patent US20250282802A1",
  "about": "“P[…] AND METHODS” (priority 2020, published 2025)",
  "key": {"D54 (glioblastoma)": {"test_system": "D54 (glioblastoma)", "assay": "Cytotoxicity profiling (Alamar Blue), D54", "assay_type": "cell-based", "conditions": "Homo sapiens, 72-hour treatment", "method": "FIG. 8. Cytotoxicity of pantaphos across various cancer cell lines. Assays were conducted as described (mBio. 2021 Feb. 2; 12(1):e03402-20), using the Alamar Blue method with 72-hour treatment using Raptinal ([…]) as Dead cell control; n=3. Cell seeding densities: CT26 (colon carcinoma) 2000 c/w; HOS (osteosarcoma) 2500 c/w; ES-2 (ovarian carcinoma), HCT-116 (colorectal carcinoma), A-549 (lung carcinoma), A-172 (glioblastoma), D54 (glioblastoma), U87 (glioblastoma), T98G (glioblastoma), SK-ML-28 (melanoma), MCF-7 (breast cancer), AM38 (glioblastoma) and MDA-MB-231 (breast cancer) 3000 c/w; U118MG (malignant glioma) 4000 c/w; HepG2 (liver cancer) 8000 c/w. c/w=cells per well. […]\nCell culture cytotoxicity screening. The compounds were evaluated for their ability to kill cancer cell lines in culture, using HOS (osteosarcoma); ES-2 (ovarian cancer); HCT 116 (colon cancer); A549 (lung carcinoma); and A172 (glioma) cells. Human skin fibroblast cells (HFF-1) were also assessed. […] 72 hours post-treatment, cell viability was assessed using the Alamar Blue method (http://www.bio-rad-antibodies.com/measuring-cytotoxicity-proliferation-spectrophotometry-fluorescence-alamarBlue.html). […] Conversion of Alamar Blue was measured with a plate reader (SpectraMax M3; Molecular Devices) by fluorescence (excitation wavelength: 555 nm; emission wavelength: 585 nm; cutoff 570 nm; autogain). […]"}, "MCF-7 (breast cancer)": {"test_system": "MCF-7 (breast cancer)", "assay": "Cytotoxicity profiling (Alamar Blue), MCF-7", "assay_type": "cell-based, human", "method": "(§1) FIG. 8. Cytotoxicity of pantaphos across various cancer cell lines. Assays were conducted as described (mBio. 2021 Feb. 2; 12(1):e03402-20), using the Alamar Blue method with 72-hour treatment using Raptinal ([…]) as Dead cell control; n=3. Cell seeding densities: CT26 (colon carcinoma) 2000 c/w; HOS (osteosarcoma) 2500 c/w; ES-2 (ovarian carcinoma), HCT-116 (colorectal carcinoma), A-549 (lung carcinoma), A-172 (glioblastoma), D54 (glioblastoma), U87 (glioblastoma), T98G (glioblastoma), SK-ML-28 (melanoma), MCF-7 (breast cancer), AM38 (glioblastoma) and MDA-MB-231 (breast cancer) 3000 c/w; U118MG (malignant glioma) 4000 c/w; HepG2 (liver cancer) 8000 c/w. c/w=cells per well. IC50 and Emax values shown in Table 6 were extracted from the raw data plotted in FIG. 8.\nCell culture cytotoxicity screening. The compounds were evaluated for their ability to kill cancer cell lines in culture, using HOS (osteosarcoma); ES-2 (ovarian cancer); HCT 116 (colon cancer); A549 (lung carcinoma); and A172 (glioma) cells. Human skin fibroblast cells (HFF-1) were also assessed. Cells were seeded (3000 cells well^−1 for ES-2, HCT 116, A549 and A172; 4000 cells well^−1 for HFF-1 and 2500 cells well^−1 for HOS) in a 96-well plate and allowed to attach overnight. Cells were treated with pantaphos in water. The concentrations of the tested compounds were 5 nM to 100 μM (1% water final; 100 μl well^−1). Raptinal (50 μM) was used as a dead control. On each plate, five technical replicates per compound were performed. 72 hours post-treatment, cell viability was assessed using the Alamar Blue method (http://www.bio-rad-antibodies.com/measuring-cytotoxicity-proliferation-spectrophotometry-fluorescence-alamarBlue.html). […] Conversion of Alamar Blue was measured with a plate reader (SpectraMax M3; Molecular Devices) by fluorescence (excitation wavelength: 555 nm; emission wavelength: 585 nm; cutoff 570 nm; autogain). Percentage death was determined by normalizing to water-treated cells and Raptinal-treated cells. […]"}, "[1]": {"test_system": "A-172 (human glioma cancer)", "assay": "Cell culture cytotoxicity screening (Alamar Blue), A-172", "assay_type": "cell-based", "method": "as §1\nCell culture cytotoxicity screening. The compounds were evaluated for their ability to kill cancer cell lines in culture, using HOS (osteosarcoma); ES-2 (ovarian cancer); HCT 116 (colon cancer); A549 (lung carcinoma); and A172 (glioma) cells. Human skin fibroblast cells (HFF-1) were also assessed. Cells were seeded (3000 cells well^−1 for ES-2, HCT 116, A549 and A172; 4000 cells well^−1 for HFF-1 and 2500 cells well^−1 for HOS) in a 96-well plate and allowed to attach overnight. Cells were treated with pantaphos in water. The concentrations of the tested compounds were 5 nM to 100 μM (1% water final; 100 μl well^−1). Raptinal (50 μM) was used as a dead control. On each plate, five technical replicates per compound were performed. 72 hours post-treatment, cell viability was assessed using the Alamar Blue method (http://www.bio-rad-antibodies.com/measuring-cytotoxicity-proliferation-spectrophotometry-fluorescence-alamarBlue.html). Alamar Blue solution (10 μl of 440 μM resazurin in sterile 1×PBS) was added to each well, and the plate was incubated for 3-4 hrs. Conversion of Alamar Blue was measured with a plate reader (SpectraMax M3; Molecular Devices) by fluorescence (excitation wavelength: 555 nm; emission wavelength: 585 nm; cutoff 570 nm; autogain). Percentage death was determined by normalizing to water-treated cells and Raptinal-treated cells. For IC50 determination, the data were plotted as compound concentration versus dead cell percentage and fitted to a logistic-dose-response curve using OriginPro 2019 (OriginLab). The data were generated in triplicate, and IC50 values are reported as the average of three separate experiments along with SEM values."}, "[2]": {"test_system": "Acinetobacter baumannii ATCC 19606", "assay": "Antibacterial bioassay (MIC), Acinetobacter baumannii", "assay_type": "cell-based", "conditions": "CLSI", "method": "(§2) Antibacterial bioassays. Susceptibility testing for the ESKAPE pathogens and Salmonella enterica LT2 was performed using a Kirby-Bauer method as outlined by the Clinical and Laboratory Standards Institute (CLSI). For rich media bioassays, Mueller Hinton Broth 2 (MH-2, Sigma-Aldrich, 90922) was used for all strains except 1% BHI was supplemented for Enterococcus faecalis ATCC 19433. For minimal media bioassays, glucose-MOPS minimal medium was used. Briefly, overnight bacterial cultures were sub-cultured and inoculated into 5 mL top agar (0.7% agar) for final concentration of 5×10^5 CFU/mL. Then, 20 μL of a compound 2-fold dilution series (200, 100, 50, 25, 12.5, 6.25 μM in water) was spotted on 6 mm diameter blank paper discs (BD BBL™ 231039). Control discs received 20 μL of 50 mg/mL kanamycin. Plates were incubated at 35° C. for 20-24 hours. […] Sensitivity of the IPTG-inducible phosphonate uptake strain WM6242 to pantaphos was tested using a disk diffusion assay. Plates containing growth medium were overlayed with 5 mL of top agar (0.7% agar) inoculated with 100 μL (OD600=0.8) of the phosphonate-specific E. coli indicator strain (WM6242) with or without addition of 1 mM IPTG. WM6242 is engineered with an IPTG-inducible, non-specific phosphonate uptake system (phnCDE). […]"}, "Salmonella enterica LT2": {"test_system": "Salmonella enterica LT2", "assay": "Antibacterial bioassay (MIC), Salmonella enterica", "assay_type": "cell-based", "conditions": "CLSI", "method": "as §2"}, "onion bulbs": {"test_system": "onion bulbs", "assay": "Onion bioactivity assay (center rot)", "assay_type": "in vivo, Allium cepa (onion)", "conditions": "30° C.", "method": "Onion bioactivity assays. Yellow onions purchased from a local market were surface sterilized in a laminar flow biosafety hood as follows. First, the outermost layers with any damage or browning were removed and discarded, followed by soaking for 10 minutes in 10% bleach. The onions were then rinsed three times with sterile dH2O, followed by soaking in 70% EtOH for an additional 10 minutes, then rinsed four times with sterile dH2O. The onions were left in a biosafety laminar flow hood until water and ethanol were completely evaporated. For testing virulence of microbial strains, the onions were inoculated by stabbing with a previously sterilized wooden toothpick dipped into a bacterial cell suspension (1×10^3 CFU/mL in 1×PBS buffer). Chemical complementation studies were performed by addition of 100 μL of filter-sterilized sample into the hole created by the toothpick during inoculation. For testing bioactivity of crude and purified chemical samples in the absence of bacteria, holes were punched in sterilized onions using sterile toothpicks followed by addition of 100 μL of a filter-sterilized sample. Following inoculation and/or treatment with filter-sterilized compounds, the onions were placed in zip-lock plastic bags and incubated at 30° C. in the dark for the indicated number of days. […]"}, "Escherichia coli WM6242": {"test_system": "Escherichia coli WM6242", "assay": "Disk diffusion assay with phosphonate-specific bioassay strain E. coli WM6242", "assay_type": "cell-based", "method": "Antibacterial bioassays. Susceptibility testing for the ESKAPE pathogens and Salmonella enterica LT2 was performed using a Kirby-Bauer method as outlined by the Clinical and Laboratory Standards Institute (CLSI). For rich media bioassays, Mueller Hinton Broth 2 (MH-2, Sigma-Aldrich, 90922) was used for all strains except 1% BHI was supplemented for Enterococcus faecalis ATCC 19433. For minimal media bioassays, glucose-MOPS minimal medium was used. Briefly, overnight bacterial cultures were sub-cultured and inoculated into 5 mL top agar (0.7% agar) for final concentration of 5×10^5 CFU/mL. Then, 20 μL of a compound 2-fold dilution series (200, 100, 50, 25, 12.5, 6.25 μM in water) was spotted on 6 mm diameter blank paper discs (BD BBL™ 231039). Control discs received 20 μL of 50 mg/mL kanamycin. Plates were incubated at 35° C. for 20-24 hours. […] Sensitivity of the IPTG-inducible phosphonate uptake strain WM6242 to pantaphos was tested using a disk diffusion assay. Plates containing growth medium were overlayed with 5 mL of top agar (0.7% agar) inoculated with 100 μL (OD600=0.8) of the phosphonate-specific E. coli indicator strain (WM6242) with or without addition of 1 mM IPTG. WM6242 is engineered with an IPTG-inducible, non-specific phosphonate uptake system (phnCDE). After the seeded overlay solidified, 6 mm paper disks were spotted with 10 μL of a dilution series (200, 100, 50, 25, 12.5, 6.25 μM in water) of pantaphos and applied to the plates that were then incubated at 37° C. for 24 hours. Phosphonate-specific activity was queried by comparing sensitivity to that of 200 μM kanamycin and 200 μM fosfomycin."}},
  "note": "Read-outs that look alike come from different tables or passages of the source.",
  "data": [
    {"smiles": "O=C(O)/C=C(\\C(=O)O)C(O)P(=O)(O)O", "note": "(stereo not shown) [pantaphos, 2-(hydroxy(phosphono)methyl)maleate]", "values": [
      {"measurement": "Emax", "setting": "D54 (glioblastoma)", "result": "46 to 58", "unit": "%"},
      {"measurement": "Emax", "setting": "MCF-7 (breast cancer); Homo sapiens, MCF7, MCF-7, Alamar Blue, 72-hour treatment", "result": "90 to 92", "unit": "%"},
      {"measurement": "IC50", "setting": "MCF-7 (breast cancer); Homo sapiens, MCF7, MCF-7, Alamar Blue, 72-hour treatment (Table 6)", "result": "2880 ± 6280", "unit": "nM"},
      {"measurement": "sensitivity of the cell line to the compound, in words", "setting": "MCF-7 (breast cancer); MCF-7", "result": "sensitive"},
      {"measurement": "IC50", "setting": "[1]; A 172, 72 h, A-172, Alamar Blue, 72-hour treatment (Table 6)", "result": "1010 ± 60", "unit": "nM"},
      {"measurement": "IC50", "setting": "[1]; A 172, 72 h, A-172, Alamar Blue, 72 hours", "result": 1000, "unit": "nM"},
      {"measurement": "IC50", "setting": "[1]; A 172, A-172 (text of Example 5)", "result": 1000, "unit": "nM"},
      {"measurement": "Emax", "setting": "[1]; A-172, Alamar Blue, 72 hours, read-out: Emax = percentage cell death (converted)", "result": 99, "unit": "%"},
      {"measurement": "MIC", "setting": "[2]; ATCC19606, Mueller-Hinton 2 medium, read-out: MIC, Rich medium", "result": "> 200", "unit": "µM"},
      {"measurement": "MIC", "setting": "[2]; ATCC19606, glucose-MOPS minimal medium, read-out: MIC, Minimal medium", "result": "> 200", "unit": "µM"},
      {"measurement": "MIC", "setting": "Salmonella enterica LT2; Mueller-Hinton 2 medium, read-out: MIC, Rich medium", "result": "> 200", "unit": "µM"},
      {"measurement": "MIC", "setting": "Salmonella enterica LT2; glucose-MOPS minimal medium, read-out: MIC, Minimal medium", "result": "> 200", "unit": "µM"},
      {"measurement": "onion center rot on co-inoculation with the P. ananatis hvr deletion mutant (chemical complementation)", "setting": "onion bulbs; co-inoculated with hvr mutant", "result": "resulted in onion rot"},
      {"measurement": "onion rot lesions after injection in the absence of bacteria", "setting": "onion bulbs; surface sterilized onion bulbs, 100 μL filter-sterilized sample, no bacteria", "result": "severe onion rot lesions"},
      {"measurement": "MIC", "setting": "Escherichia coli WM6242; +IPTG, Mueller-Hinton 2 medium, read-out: MIC, Rich medium", "result": ">200", "unit": "µM"},
      {"measurement": "MIC", "setting": "Escherichia coli WM6242; +IPTG, glucose-MOPS minimal medium, read-out: MIC, Minimal medium", "result": ">200", "unit": "µM"},
      {"measurement": "MIC", "setting": "Escherichia coli WM6242; Escherichia coli, WM6242, −IPTG, Mueller-Hinton 2 medium, read-out: MIC, Rich medium", "result": "> 200", "unit": "µM"},
      {"measurement": "MIC", "setting": "Escherichia coli WM6242; Escherichia coli, WM6242, −IPTG, glucose-MOPS minimal medium, read-out: MIC, Minimal medium", "result": "> 200", "unit": "µM"},
      {"measurement": "sensitivity of the strain to pantaphos, in words", "setting": "Escherichia coli WM6242; with or without IPTG induction", "result": "insensitive"}
    ]}
  ]
}
